pIC50: −log10 of the molar value. Calls of active or inactive are those of the source. The calls are words filed in the database; no cut-off is given here.
What was measured:
[1] = target: Serine/threonine-protein kinase D2 (Homo sapiens) (UniProt Q9BZL6); assay: Inhibition of human recombinant PRKD2 expressed in baculovirus expression system at 1 uM by LanthaScreen assay
[2] = test system: Receptor-type tyrosine-protein kinase FLT3 (Homo sapiens), P36888 [UNDEFINED MUTATION]; assay: Inhibition of FLT3-ITD mutant in human MOLM-13 cells assessed as decrease in p-S6 kinase level measured after 24 to 48 hrs by Western blot analysis; type: cell-based; conditions: dose 10-100 nM, time 24-48 hrs, DDE = dose-dependent effect
MV4-11 [3] = assay: Inhibition of colony formation in human MV4-11 cells at 500 nM measured after 14 days; type: functional, cell-based; conditions: time 14.0 day
[4] = target: NT-3 growth factor receptor (Homo sapiens) (UniProt Q16288); assay: Inhibition of human recombinant TrkC expressed in baculovirus expression system at 1 uM by LanthaScreen assay
MOLM-13 [5] = assay: Inhibition of colony formation in human MOLM-13 cells at 500 nM measured after 7 days; type: functional, cell-based; conditions: time 7.0 day
[6] = target: Tyrosine-protein kinase Lck (Homo sapiens) (UniProt P06239); assay: Inhibition of human recombinant LCK expressed in baculovirus expression system at 1 uM by LanthaScreen assay
[7] = target: T1, Receptor-type tyrosine-protein kinase FLT3 (Homo sapiens, UniProt P36888, ITD)
[8] = target: Mast/stem cell growth factor receptor Kit (Homo sapiens) (UniProt P10721); assay: Inhibition of c-Kit (unknown origin) at 1 uM
[9] = target: Proto-oncogene tyrosine-protein kinase Src (Homo sapiens) (UniProt P12931); assay: Inhibition of human recombinant Src expressed in baculovirus expression system at 1 uM by LanthaScreen assay
[10] = target: Platelet-derived growth factor receptor beta (Homo sapiens) (UniProt P09619); assay: Inhibition of human recombinant PDGFRB expressed in baculovirus expression system at 1 uM by LanthaScreen assay
[11] = target: Vascular endothelial growth factor receptor 3 (Homo sapiens) (UniProt P35916); assay: Inhibition of human recombinant FLT4 expressed in baculovirus expression system at 1 uM by LanthaScreen assay
[12] = target: Vascular endothelial growth factor receptor 1 (Homo sapiens) (UniProt P17948); assay: Inhibition of human recombinant FLT1 expressed in baculovirus expression system at 1 uM by LanthaScreen assay
[13] = target: Platelet-derived growth factor receptor alpha (Homo sapiens) (UniProt P16234); assay: Inhibition of PDGFRA (unknown origin) at 1 uM
[14] = test system: Receptor-type tyrosine-protein kinase FLT3 (Homo sapiens), P36888 [UNDEFINED MUTATION]; assay: Inhibition of FLT3-ITD mutant in human MV4-11 cells assessed as decrease in Erk1/2 phosphorylation measured after 24 to 48 hrs by Western blot analysis; type: cell-based; conditions: dose 10-100 nM, time 24-48 hrs, DDE = dose-dependent effect
MV4-11 [15] = assay: Induction of apoptosis in human MV4-11 cells assessed as increase number of apoptotic cells at 10 to 50 nM measured after 72 hrs by propidium iodide staining based flow cytometry; type: functional, cell-based; conditions: dose 10-50 nM
MOLM-13 [16] = assay: Induction of apoptosis in human MOLM-13 cells assessed as increase number of necrotic cells at 10 to 50 nM measured after 72 hrs by propidium iodide staining based flow cytometry; type: functional, cell-based; conditions: dose 10-50 nM
MV4-11 [17] = assay: cells; conditions: Homo sapiens, MV4-11, 72 h
BNL = assay: Cytotoxicity against mouse BNL cells assessed as cell viability at 10 to 50 nM measured after 72 hrs by ATP Cell titer-Glo assay; type: toxicity, cell-based; conditions: 0.05 µM, dose 10-50 nM
[18] = target: Serine/threonine-protein kinase B-raf (Homo sapiens) (UniProt P15056); assay: Inhibition of B-raf (unknown origin) at 1 uM
[19] = target: CDK2/Cyclin A2 (Homo sapiens) (UniProt P24941+P20248); assay: Inhibition of His-tagged recombinant full length human CDK2/CyclinA expressed in baculovirus expression system at 1 uM by LanthaScreen assay
MOLM-13 [20] = assay: Induction of apoptosis in human MOLM-13 cells assessed as increase number of apoptotic cells at 10 to 50 nM measured after 72 hrs by propidium iodide staining based flow cytometry; type: functional, cell-based; conditions: dose 10-50 nM
[21] = target: Vascular endothelial growth factor receptor 2 (Homo sapiens) (UniProt P35968); assay: Inhibition of human recombinant KDR expressed in baculovirus expression system at 1 uM by LanthaScreen assay
[22] = target: Serine/threonine-protein kinase pim-1 (Homo sapiens) (UniProt P11309); assay: Inhibition of human recombinant PIM1 expressed in baculovirus expression system at 1 uM by LanthaScreen assay
MV4-11 [23] = assay: Induction of apoptosis in human MV4-11 cells assessed as increase number of necrotic cells at 10 to 50 nM measured after 72 hrs by propidium iodide staining based flow cytometry; type: functional, cell-based; conditions: dose 10-50 nM
MOLM-13 [24] = assay: Cell cycle arrest in human MOLM-13 cells assessed as accumulation at G0/G1 phase at 10 to 50 nM measured after 72 hrs by flow cytometry; type: functional, cell-based; conditions: dose 10-50 nM
KM12 = assay: Anticancer activity against human KM12 cells assessed as cell viability after 72 hrs by ATP Cell Titer G1oTM assay; type: functional, cell-based; conditions: KM12, 72 h
[25] = test system: Receptor-type tyrosine-protein kinase FLT3 (Homo sapiens), P36888 [UNDEFINED MUTATION]; assay: Inhibition of FLT3-ITD mutant in human MOLM-13 cells assessed as decrease in Erk1/2 phosphorylation measured after 24 to 48 hrs by Western blot analysis; type: cell-based; conditions: dose 10-100 nM, time 24-48 hrs, DDE = dose-dependent effect
[26] = target: BDNF/NT-3 growth factors receptor (Homo sapiens) (UniProt Q16620); assay: Inhibition of human recombinant TrkB expressed in baculovirus expression system at 1 uM by LanthaScreen assay
[27] = target: T2, Receptor-type tyrosine-protein kinase FLT3 (Homo sapiens, UniProt P36888, D835Y)
[28] = target: High affinity nerve growth factor receptor (Homo sapiens, UniProt P04629)
Description: Inhibition of recombinant His-tagged human TrKA expressed in baculovirus expression system by LanthaScreen assay

MOLM-13 [29] = assay: cells; conditions: Homo sapiens, MOLM-13, 72 h
[30] = target: Tyrosine-protein kinase ABL1 (Homo sapiens) (UniProt P00519); assay: Inhibition of His-tagged recombinant human ABL1 at 1 uM
[31] = target: Fibroblast growth factor receptor 3 (Homo sapiens) (UniProt P22607); assay: Inhibition of FGFR3 (unknown origin) at 1 uM
[32] = target: Insulin-like growth factor 1 receptor (Homo sapiens) (UniProt P08069); assay: Inhibition of human recombinant IGF1R expressed in baculovirus expression system at 1 uM by LanthaScreen assay
[33] = target: T3, Receptor-type tyrosine-protein kinase FLT3 (Homo sapiens, UniProt P36888)
Description: Inhibition of recombinant His-tagged human FLT3 (564 to 958 residues) expressed in baculovirus expression system by LanthaScreen assay

[34] = test system: Receptor-type tyrosine-protein kinase FLT3 (Homo sapiens), P36888 [UNDEFINED MUTATION]; assay: Inhibition of FLT3-ITD mutant in human MV4-11 cells assessed as decrease in p-S6 kinase level measured after 24 to 48 hrs by Western blot analysis; type: cell-based; conditions: dose 10-100 nM, time 24-48 hrs, DDE = dose-dependent effect
H9c2 = assay: Cytotoxicity against rat H9c2 cells assessed as cell viability at 10 to 50 nM measured after 72 hrs by ATP Cell titer-Glo assay; type: toxicity, cell-based; conditions: h9c2, 72 h, 0.05 µM, dose 10-50 nM
MV4-11 [35] = assay: Cell cycle arrest in human MV4-11 cells assessed as accumulation at G0/G1 phase at 10 to 50 nM measured after 72 hrs by flow cytometry; type: functional, cell-based; conditions: dose 10-50 nM
[36] = target: T2, Receptor-type tyrosine-protein kinase FLT3; remark: listed apart in the source
[37] = target: T1, Receptor-type tyrosine-protein kinase FLT3; type: cell-based, MV4-11
[38] = target: T3, Receptor-type tyrosine-protein kinase FLT3; type: cell-based, RS4-11

Sequence of NT-3 growth factor receptor (Homo sapiens) (Q16288 32-839 limits assumed): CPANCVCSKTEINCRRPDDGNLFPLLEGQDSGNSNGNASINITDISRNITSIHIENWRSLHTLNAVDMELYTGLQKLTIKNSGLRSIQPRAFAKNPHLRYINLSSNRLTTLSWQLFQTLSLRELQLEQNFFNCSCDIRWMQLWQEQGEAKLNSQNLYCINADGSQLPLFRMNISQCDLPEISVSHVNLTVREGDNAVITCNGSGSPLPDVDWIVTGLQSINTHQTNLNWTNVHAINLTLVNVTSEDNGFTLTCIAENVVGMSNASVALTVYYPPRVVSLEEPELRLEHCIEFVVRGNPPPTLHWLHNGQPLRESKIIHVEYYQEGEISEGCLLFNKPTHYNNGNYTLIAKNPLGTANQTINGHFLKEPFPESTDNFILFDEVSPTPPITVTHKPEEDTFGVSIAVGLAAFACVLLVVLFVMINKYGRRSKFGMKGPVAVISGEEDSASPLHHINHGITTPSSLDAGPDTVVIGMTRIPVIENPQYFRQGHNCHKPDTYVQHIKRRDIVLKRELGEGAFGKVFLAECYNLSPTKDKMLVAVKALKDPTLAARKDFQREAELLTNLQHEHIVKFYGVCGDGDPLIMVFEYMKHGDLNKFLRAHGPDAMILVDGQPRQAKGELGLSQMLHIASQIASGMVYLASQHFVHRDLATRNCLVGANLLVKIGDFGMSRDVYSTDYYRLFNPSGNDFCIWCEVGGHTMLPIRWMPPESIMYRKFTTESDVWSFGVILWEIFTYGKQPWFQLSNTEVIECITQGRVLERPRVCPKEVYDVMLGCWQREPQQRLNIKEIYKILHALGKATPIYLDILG
Sequence of Fibroblast growth factor receptor 3 (Homo sapiens) (P22607 23-806 limits assumed): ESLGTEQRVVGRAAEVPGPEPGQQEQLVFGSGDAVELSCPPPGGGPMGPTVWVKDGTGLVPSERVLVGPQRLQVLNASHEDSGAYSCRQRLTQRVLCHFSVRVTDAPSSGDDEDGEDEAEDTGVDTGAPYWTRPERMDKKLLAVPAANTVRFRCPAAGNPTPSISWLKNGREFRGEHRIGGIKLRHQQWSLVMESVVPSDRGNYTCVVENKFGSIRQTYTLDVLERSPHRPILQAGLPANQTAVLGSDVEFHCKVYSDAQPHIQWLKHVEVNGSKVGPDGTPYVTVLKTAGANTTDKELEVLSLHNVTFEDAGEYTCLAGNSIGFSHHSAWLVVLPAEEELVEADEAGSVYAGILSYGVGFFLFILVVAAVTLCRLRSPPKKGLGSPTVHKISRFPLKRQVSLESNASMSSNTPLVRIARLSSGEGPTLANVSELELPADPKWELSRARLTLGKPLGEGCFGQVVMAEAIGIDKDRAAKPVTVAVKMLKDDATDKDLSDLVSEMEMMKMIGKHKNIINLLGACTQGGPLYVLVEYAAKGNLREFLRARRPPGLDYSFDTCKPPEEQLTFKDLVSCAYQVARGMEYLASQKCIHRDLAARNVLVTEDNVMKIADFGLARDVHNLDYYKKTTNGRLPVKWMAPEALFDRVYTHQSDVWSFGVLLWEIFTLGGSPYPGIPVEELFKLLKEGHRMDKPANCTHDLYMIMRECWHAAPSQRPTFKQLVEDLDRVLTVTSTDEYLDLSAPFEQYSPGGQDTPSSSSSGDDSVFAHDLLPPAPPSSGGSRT
Sequence of Serine/threonine-protein kinase pim-1 (Homo sapiens) (P11309 whole entry, looked up): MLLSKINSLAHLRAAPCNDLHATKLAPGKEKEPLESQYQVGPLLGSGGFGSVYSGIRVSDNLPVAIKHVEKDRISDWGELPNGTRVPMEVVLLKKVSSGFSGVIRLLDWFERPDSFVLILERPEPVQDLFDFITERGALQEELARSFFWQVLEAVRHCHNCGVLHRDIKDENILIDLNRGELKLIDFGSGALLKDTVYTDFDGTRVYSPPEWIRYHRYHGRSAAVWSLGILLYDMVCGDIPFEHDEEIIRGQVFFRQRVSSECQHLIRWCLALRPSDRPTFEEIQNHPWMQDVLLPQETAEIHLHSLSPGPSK
Sequence of Tyrosine-protein kinase ABL1 (Homo sapiens) (P00519 whole entry): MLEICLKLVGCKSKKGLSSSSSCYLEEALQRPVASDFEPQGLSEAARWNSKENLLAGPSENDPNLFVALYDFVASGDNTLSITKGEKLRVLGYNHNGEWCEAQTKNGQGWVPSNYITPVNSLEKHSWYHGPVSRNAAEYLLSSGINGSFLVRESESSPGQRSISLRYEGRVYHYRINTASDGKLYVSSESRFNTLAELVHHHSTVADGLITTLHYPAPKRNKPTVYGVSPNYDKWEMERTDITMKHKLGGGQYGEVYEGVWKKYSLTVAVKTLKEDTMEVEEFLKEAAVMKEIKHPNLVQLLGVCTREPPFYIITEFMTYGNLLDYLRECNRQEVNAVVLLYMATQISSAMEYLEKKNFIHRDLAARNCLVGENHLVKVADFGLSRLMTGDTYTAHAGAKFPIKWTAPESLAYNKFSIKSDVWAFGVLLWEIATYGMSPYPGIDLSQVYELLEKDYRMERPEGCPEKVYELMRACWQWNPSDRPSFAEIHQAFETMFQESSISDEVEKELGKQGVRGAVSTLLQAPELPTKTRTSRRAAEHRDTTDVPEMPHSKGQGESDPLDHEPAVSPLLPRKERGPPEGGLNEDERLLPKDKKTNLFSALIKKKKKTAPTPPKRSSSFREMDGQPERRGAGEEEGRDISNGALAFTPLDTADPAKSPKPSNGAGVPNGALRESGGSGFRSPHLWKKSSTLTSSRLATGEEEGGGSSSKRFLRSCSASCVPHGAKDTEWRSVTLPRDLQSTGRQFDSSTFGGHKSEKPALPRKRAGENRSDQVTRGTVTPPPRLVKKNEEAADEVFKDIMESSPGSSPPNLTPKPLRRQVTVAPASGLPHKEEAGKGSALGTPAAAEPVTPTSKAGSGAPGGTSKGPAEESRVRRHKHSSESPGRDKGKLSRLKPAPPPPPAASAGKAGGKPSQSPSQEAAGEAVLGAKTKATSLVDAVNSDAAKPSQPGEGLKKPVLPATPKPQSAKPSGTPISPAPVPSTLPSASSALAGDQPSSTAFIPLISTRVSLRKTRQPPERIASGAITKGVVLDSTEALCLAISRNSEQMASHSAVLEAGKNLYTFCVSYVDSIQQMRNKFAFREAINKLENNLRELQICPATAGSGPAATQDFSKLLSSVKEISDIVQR
Sequence of Serine/threonine-protein kinase D2 (Homo sapiens) (Q9BZL6 whole entry): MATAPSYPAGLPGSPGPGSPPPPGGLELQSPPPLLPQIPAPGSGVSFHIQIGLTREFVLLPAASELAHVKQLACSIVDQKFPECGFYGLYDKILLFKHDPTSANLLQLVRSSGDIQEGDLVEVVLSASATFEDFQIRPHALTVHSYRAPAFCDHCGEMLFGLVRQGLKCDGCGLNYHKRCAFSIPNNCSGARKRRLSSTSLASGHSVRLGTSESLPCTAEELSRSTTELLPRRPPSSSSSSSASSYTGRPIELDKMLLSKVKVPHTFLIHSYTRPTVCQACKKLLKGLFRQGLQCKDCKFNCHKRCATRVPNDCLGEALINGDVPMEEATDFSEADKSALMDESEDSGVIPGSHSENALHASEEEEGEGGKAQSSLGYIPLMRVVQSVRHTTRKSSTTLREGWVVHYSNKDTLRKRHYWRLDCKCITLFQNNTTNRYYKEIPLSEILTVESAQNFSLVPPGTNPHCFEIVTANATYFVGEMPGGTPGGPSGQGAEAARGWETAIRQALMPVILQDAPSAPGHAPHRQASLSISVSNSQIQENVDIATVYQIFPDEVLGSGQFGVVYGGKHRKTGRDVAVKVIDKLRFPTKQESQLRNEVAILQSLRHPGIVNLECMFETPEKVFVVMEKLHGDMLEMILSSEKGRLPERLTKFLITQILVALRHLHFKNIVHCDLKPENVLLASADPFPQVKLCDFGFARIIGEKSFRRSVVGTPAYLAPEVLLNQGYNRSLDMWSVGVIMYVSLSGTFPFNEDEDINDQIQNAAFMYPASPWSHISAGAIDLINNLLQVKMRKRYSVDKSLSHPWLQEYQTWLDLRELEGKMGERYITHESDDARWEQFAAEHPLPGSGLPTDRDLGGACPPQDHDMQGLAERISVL
Sequence of High affinity nerve growth factor receptor (P04629 whole entry): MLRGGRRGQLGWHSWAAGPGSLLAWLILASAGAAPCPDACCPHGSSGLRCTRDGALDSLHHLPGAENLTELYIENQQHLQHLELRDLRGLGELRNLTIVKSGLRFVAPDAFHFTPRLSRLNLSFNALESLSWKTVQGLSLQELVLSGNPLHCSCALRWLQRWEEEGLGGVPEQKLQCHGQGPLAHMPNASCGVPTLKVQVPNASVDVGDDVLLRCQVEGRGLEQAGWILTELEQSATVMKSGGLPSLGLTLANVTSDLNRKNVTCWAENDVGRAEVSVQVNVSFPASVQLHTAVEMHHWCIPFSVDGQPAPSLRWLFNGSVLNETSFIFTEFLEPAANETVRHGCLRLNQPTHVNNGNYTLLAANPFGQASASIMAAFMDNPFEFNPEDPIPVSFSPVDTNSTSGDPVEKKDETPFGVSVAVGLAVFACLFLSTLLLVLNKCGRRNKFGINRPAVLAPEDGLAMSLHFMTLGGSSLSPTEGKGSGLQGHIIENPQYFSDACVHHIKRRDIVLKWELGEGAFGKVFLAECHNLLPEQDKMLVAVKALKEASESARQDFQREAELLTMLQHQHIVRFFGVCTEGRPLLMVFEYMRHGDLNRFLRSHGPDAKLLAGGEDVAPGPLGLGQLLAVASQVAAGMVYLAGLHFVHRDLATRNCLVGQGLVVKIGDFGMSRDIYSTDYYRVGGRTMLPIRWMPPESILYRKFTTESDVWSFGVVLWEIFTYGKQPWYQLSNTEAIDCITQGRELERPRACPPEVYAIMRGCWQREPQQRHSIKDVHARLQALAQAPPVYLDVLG

In the case of `CC(=O)Nc1ccc(-n2cnc3cc(-c4ccc(OCCN5CCCCC5)cc4)ccc32)cc1`, the inhibition [1] was 19%, the inhibition [2] was “Dde” and the inhibition (MV4-11 [3]) was “Active”. For the same compound, the inhibition [4] was 79%, the inhibition (MOLM-13 [5]) was “Active” and the inhibition [6] was 78%. It also gave a pIC50 [7] of 7.01, an inhibition [8] of 36% and an inhibition [9] of 27%. For the same compound, the inhibition [10] was 33%, the inhibition [11] was 24% and the inhibition [12] was 13%. The inhibition [13] was 41%, the inhibition [14] was “Dde” and the Activity (MV4-11 [15]) was “Active”. The Activity (MOLM-13 [16]) was “Active”, the pIC50 (MV4-11 [17]) was 7.26 and the Activity (BNL) was “Non-Toxic”. For the same compound, the inhibition [18] was 5%, the inhibition [19] was 2% and the Activity (MOLM-13 [20]) was “Active”. The inhibition [21] was 77%, the inhibition [22] was 9% and the Activity (MV4-11 [23]) was “Active”. For the same compound, the Activity (MOLM-13 [24]) was “Active”, the pIC50 (KM12) was 6.45 and the inhibition [25] was “Dde”. It also gave an inhibition [26] of 70%, a pIC50 [27] of 7.03 and a pIC50 [28] of 7.63. The pIC50 (MOLM-13 [29]) was 7.41, the inhibition [30] was 63% and the inhibition [31] was 13%. For the same compound, the inhibition [32] was 11%, the pIC50 [33] was 7.36 and the inhibition [34] was “Dde”. The Activity (H9c2) was “Non-Toxic” and the Activity (MV4-11 [35]) was “Active”.
Compound `CCc1nc(C(N)=O)c(Cc2ccc(N3CCC(N4CCN(C)CC4)CC3)c(OC)c2)nc1CN1CCOCC1` has a pIC50 [36] of 8.80, a pIC50 [37] of 8.74 and a pIC50 [38] of 9.54.
